Results published in PubChem BioAssay AID2305 (GlaxoSmithKline (GSK), 2010).

Tested on: P. falciparum 3D7 growth, pLDH absorbance
Assay: blood-stage malaria parasite growth potency – strain 3D7, dose response (AID 2305)

SMILES	IC50 [nM]
Oc1ccc(CCNc2nc(NCCOc3ccccc3-c3ccccc3)nc(N3CCNCC3)n2)cc1	1040
COc1ccc(CNCCCCCCCNCc2ccc(Cl)c(Cl)c2)cc1Cl	1220
O=C(c1ccc(F)c2ccccc12)N1CCc2cc3nccc(N4CCN5CCC[C@H]5C4)c3cc21	1000
Cc1cccc(CC(N)=NCCCCCCN=C(N)Cc2cccc(C)c2)c1	170
O=C(NC1CCN(CCC[C@]2(c3ccc(Cl)c(Cl)c3)CCCN(C(=O)c3ccccc3)C2)CC1)c1ccc(Cl)cc1	900
CN1CCCC(CN2CCN(Cc3cccc(-c4csc(-c5nc6ccccc6[nH]5)c4)c3)CC2)C1 (stereo unspecified)	410
Cc1cc(Nc2ccc(OCc3ccccc3Cl)cc2)c2cc(Cl)ccc2n1	430
Cc1c2ccncc2c(C)c2c1[nH]c1ccccc12	800
CS(=O)(=O)CCNCc1ccc(-c2cc3c(Nc4ccc(OCc5cccc(F)c5)c(Cl)c4)ncnc3s2)[nH]1	840
CCOc1ccc(C(=O)Nc2cc(Br)c3c(c2)CNCC3)cc1Cl	1040
CN1CCCc2cc(NC(=O)C=Cc3ccc(-c4ccc(F)cc4F)o3)ccc2C1	780
O=C(NCCc1ccccc1)N(Cc1cccc(-c2ccc(CNCCc3ccccc3)cc2)c1)C1CCN(Cc2ccccc2)CC1	610
N#Cc1ccc2c(c1)CCN(CCC1CCC(NC(=O)c3ccc(-c4ccccc4)s3)CC1)CC2 (stereo unspecified)	680
COc1ccc(S(=O)(=O)N2CCC3(CC2)OCC(=O)NC3c2ccc(Cl)c(Cl)c2)cc1 (stereo unspecified)	640
CSCCCN1CCC(O)(c2ccc3oc(C(=O)Nc4ccc5sc(C)nc5c4)cc3c2)CC1	1070
NOCCCCOc1ccc(Br)cc1	190
O=C(C=Cc1ccc([N+](=O)[O-])cc1)N1CCC(CCN2CCC(c3c[nH]c4ccccc34)CC2)CC1	740
CC(C)n1ncc2c(C(=O)N3CCCCCC3)cc(-c3ccccc3)nc21	790
O=C(NCC1CCC(C(=O)NCc2cccc3ccccc23)CC1)c1ccc(O)c(-c2ccc(Cl)c(Cl)c2)c1 (stereo unspecified)	750
FC(F)(F)c1cc(Nc2ccc(Oc3ccccc3)cc2)c2cc(-c3ccncc3)ccc2n1	450
COc1cc2nc(NCCc3ccccc3)nc(NCCCc3ccccc3)c2cc1OC	160
COc1cc(F)c2nccc([C@@H](O)CN3CCC(NCc4nc5c(F)cccc5[nH]4)CC3)c2c1	850
CC1(C)CCC(=Cc2ccc(Cl)cc2)CC1(O)Cn1ccnc1 (stereo unspecified)	740
Clc1ccc2c(NN=Cc3cccnc3)ccnc2c1	700

SMILES	IC50 [nM]
CS(=O)(=O)c1cc2c(Nc3ccc(N4CCOCC4)cc3)c(C(N)=O)cnc2cc1Br	250
Cn1c(Nc2cc(C(C)(C)C)on2)nc2cc(Nc3ccnc(Nc4ccc(CS(C)(=O)=O)cc4)n3)ccc21	980
CCc1nc2c(cnn2CC)c(NC2CCOCC2)c1CNC(=O)c1ccoc1C	890
COc1cc(CCON2C(N)=NC(N)=NC2(C)C)cc(OC)c1OC	50
CCN1CCC(N(Cc2ccc(-c3ccc(C(F)(F)F)cc3)cc2)C(=O)Cn2c(CCc3cccc(F)c3F)cc(=O)c3ccc(OCc4ccccc4)cc32)CC1	370
CCN(CCO)Cc1ccc(-c2ccc(NS(=O)(=O)c3cccc4cccnc34)cc2)cc1	990
Clc1ccc(CNC2CCN(CC3CCCCC3)CC2)cc1	1110
Cc1cc(OCCCN2CCC(NS(=O)(=O)c3cc(Br)c(Cl)s3)CC2)c2ccccc2n1	850
O=C(Nc1ccccc1)N(Cc1cccc(-c2ccc(CNCCc3ccccc3)cc2)c1)C1CCN(Cc2ccccc2)CC1	350
O=C(Nc1cccc2ccccc12)N1CCC(NS(=O)(=O)c2cccc(C(F)(F)F)c2)CC1	910
C[C@@H](CC1CCCCC1)NCc1ccccc1O	930
Cc1cc(N[C@@H](Cc2ccccc2)C(=O)Nc2ccccc2)nc(NCC2CCCCC2)n1	760
O=C(NC(Nc1ccc([N+](=O)[O-])cc1)C(Cl)(Cl)Cl)c1ccc(Cl)cc1 (stereo unspecified)	780
CCCCCOc1ccc(C(O)C(CN2CCCCC2)c2ccccc2)cc1 (stereo unspecified)	880
Oc1cccc(Nc2nc(NCc3ccco3)c3ccccc3n2)c1	410
COc1ccccc1/C=C/C(=O)NC1CCC(CCN2CCc3ccc(-c4cc(C)no4)cc3CC2)CC1 (stereo unspecified)	960
NC(=O)c1ccc(NCC(=O)Nc2cccc(-c3cccc(-c4nc5ccccc5[nH]4)c3)c2)cc1	990
COc1ccc2nccc([C@@H](O)CN3CCC(NCCOc4ccncc4)CC3)c2c1	690
CCCCC(CC)C(=O)C(NC(=O)[C@H](CSC(c1ccccc1)(c1ccccc1)c1ccccc1)NC(=O)OC(C)(C)C)C(=O)OC (stereo partly specified)	1020
Cc1cccc(Nc2nccc(NCC(O)c3ccc(C(F)(F)F)cc3)n2)c1 (stereo unspecified)	560
NCc1ccc(-c2ccccc2CN(C(=O)Nc2ccccc2)C2CCN(Cc3ccccc3)CC2)cc1	880
CCc1ccccc1-c1csc(C(=O)NCC2CCN(Cc3ccc(C(C)(C)C)cc3)C2)c1 (stereo unspecified)	1150
Nc1nc(N)c2c(Sc3ccc(F)cc3)cccc2n1	1070
O=C(COc1ccc(Cl)c(Cl)c1)NCCCCCN1CCCN(C(=O)Nc2ccc(Cl)c(Cl)c2)CC1	1730

SMILES	IC50 [nM]
CC(=O)NCCNCc1cccc(C(=O)NCc2cccc(C(F)(F)F)c2)c1	1080
CC(C)(C)Cn1cc(-c2ccc(C(=O)NCCc3ccc(S(C)(=O)=O)cc3)cc2)c(N)n1 (tested in a mixture with another compound)	650
c1cncc(NCc2ccc(-c3cc4ccncc4cc3OC3CCNCC3)s2)c1	980
COCCN1CCC(N(Cc2ccc(-c3ccc(C(F)(F)F)cc3)cc2)C(=O)Cn2c(CCc3cccc(F)c3F)cc(=O)c3c2CCC3)CC1	1320
Cc1cc(N2CCN(C)CC2)nc2ccc(NC(=O)c3cccc(N(C)C)c3)cc12	950
COc1cc(Nc2nccc(N3CCC(NC(=O)c4cc5ccccc5s4)C3)n2)cc(OC)c1OC (stereo unspecified)	790
COc1ccc2c(NN=Cc3cccc([N+](=O)[O-])c3)ccnc2c1	850
CN(CCN1CCC(c2c[nH]c3ccccc23)CC1)C(=O)OCCCCCNC(=O)/C=C/c1ccc(Cl)c(Cl)c1	680
O=C(Cc1ccccc1)NC(c1ccccc1)c1ccc2cccnc2c1O (stereo unspecified)	950
CNC(=O)c1cnc(Nc2ccc(N3CCOCC3)cc2)nc1Nc1cccc(O)c1	810
COc1ccc(C2NCCc3c2[nH]c2ccccc32)cc1CN1CCN(c2ccc(F)cc2)CC1 (stereo unspecified)	780
Nc1ncc(-c2ccc3ncccc3c2)c(N)n1	920
COc1ccc(CCNc2nc(NCc3ccccc3)c3cc(OC)c(OC)cc3n2)cc1OC	330
Cc1onc(-c2ccccc2)c1-c1nc(NC2CCCC(C)C2)no1 (stereo unspecified)	840
Cc1cc(N2CCCC2)nc(Nc2ccc(NC(=O)c3ccccc3C)cc2)n1	720
CC(C)N(CC(=O)c1ccc(O)c(C(=O)O)c1)Cc1ccccc1	190
CC[C@H]1CN2CC[C@H]1C[C@H]2[C@H](O)c1cc(-c2ccc(F)cc2C)nc2ccc(OC)cc12	160
C[C@@H]1CN(c2ncc(-c3ccc(CNC4Cc5ccccc5C4)cc3)cn2)C[C@H](C)N1	1160
CC(C)CCCC(C)NC[C@@H](O)[C@H](Cc1ccccc1)NC(=O)c1cc(N2CCCC2=O)cc(N(c2ccccc2)S(C)(=O)=O)c1 (stereo partly specified)	60
COc1ccc2nc3cc(Cl)ccc3c(Nc3ccc(Sc4ccc(Nc5c6ccc(Cl)cc6nc6ccc(OC)cc56)cc4)cc3)c2c1	200
Clc1ccc(CNCC2CCN(CC3CCCCC3)CC2)cc1Cl	1000
CC1(C)CC(=O)c2c(O)cc(OCc3ccncc3)cc2O1	1040
O=C(NC1CCN(Cc2cccc(C(F)(F)F)c2)CC1)c1ccc(-c2cccc(C(F)(F)F)c2)s1	1010
CC(C)(C)C(C)(C)Cc1ccc(O)c(CN2CCN(c3ccccc3)CC2)c1	600

SMILES	IC50 [nM]
O=C(NCCCCN1CCC(c2ccc3c(c2OCCOCCO)CCCC3)CC1)c1ccc(-c2ccc(C(F)(F)F)cc2)cc1	280
O=C(Nc1cccc(-c2ccc(CN3CCC(O)CC3)cc2)c1)c1ccc(Cl)cc1	960
Cc1[nH]cnc1CSCCNC(=NCCCCCCCCN=C(NC#N)NCCSCc1nc[nH]c1C)NC#N	1270
CN(C)CCOc1ccc(NC(=O)NC(C)(C)c2nc(-c3ccc(Cl)c(O)c3)c(-c3ccncc3)[nH]2)cc1	110
COc1cc(CNC[C@@H](O)[C@H](Cc2ccccc2)NC(=O)c2cc(C3CCCC3)cc(N3CCCS3(=O)=O)c2)cc(OC)c1	1240
COc1ccc(N2CCN(CCCCNC(=O)c3ccc(NC(=O)c4ccc(OC(F)(F)F)cc4)cc3)CC2)c(OC)c1	580
CCC[C@@H]([C@@H](CC1CCCCC1)C(=O)N[C@@H](CCCCNS(C)(=O)=O)C(=O)Nc1nccs1)N(O)C=O	80
COc1ccc(C(=O)Nc2ccc(Cl)cc2C(=O)Nc2ccncc2)cc1	820
CCN(CC)CCN(Cc1ccc(-c2ccc(C(F)(F)F)cc2)cc1)C(=O)Cn1c(CCc2cccc(F)c2F)nc(=O)c2ccc(C(F)(F)F)cc21	780
Cc1cc(C(=O)CN2C(=O)NC3(CCOc4ccccc43)C2=O)c(C)n1Cc1ccco1 (stereo unspecified)	610
Cc1c(Cc2ccc(F)cc2)c(Cl)nc2nc(N)nc(N)c12	860
Cc1noc(-c2ccc(NC[C@@H](C)NC[C@H](O)c3cccc(Cl)c3)cc2)n1	760
Cc1cc2ncn(-c3nccc(NCc4ccc(F)cc4)n3)c2cc1C	890
COc1cccc(C(=O)NCc2cccs2)c1OCc1ccccc1	920
CCCN1CCC(NCc2cn(C)nc2-c2ccc(Oc3ccccc3)cc2)CC1	1440
Cc1cc(N[C@@H](Cc2ccccc2)C(=O)NCc2cccc(F)c2)nc(NCCc2cccs2)n1	620
O=C(Cc1cnc[nH]1)Nc1cccc(-c2cccc(-c3nc4ccccc4[nH]3)c2)c1	1020
COc1ccc(NC(=O)/C=C/c2ccc(Cl)c(Cl)c2)cc1N1CCN(C)CC1	980
CN1CCN(Cc2cccc(-c3ccc4c(Nc5ccc(Oc6cccnc6)cc5)ccnc4c3)c2)CC1	190
CC1CCC(NC(=O)c2nn(-c3ccc(Cl)cc3)c(=O)c3ccccc23)CC1 (stereo unspecified)	1080
COc1cc(Cc2cnc(N)nc2N)ccc1OCc1ccc(F)c(F)c1	910
C[C@H](Cc1ccc(CCc2ccc(C[C@@H](C)NC[C@H](O)c3cccc(Cl)c3)cc2)cc1)NC[C@H](O)c1cccc(Cl)c1	940
Cc1cc(NC(=O)NCCN2CCC(NC(=O)c3ccc(Cl)cc3)CC2)c2ccccc2n1	380
COc1cccc2c(NN=Cc3ccc(Cl)cc3)ccnc12	810
